Data taken from patent US20240041838A1, “METHODS AND COMPOSITIONS FOR INHIBITION OF NEUTROPHIL RECRUITMENT IN MYCOCARDIAL ISCHEMIA-REPERFUSION INJURY” (University of Connecticut, priority 2022, published 2024).
Like-named read-outs stand apart in the source and are kept apart here.

How the values were obtained:
[1] = test system: Rac-1 activation in human neutrophils; assay: Rac-1-GTP pull-down and western blot in human neutrophils; format: cell-based; conditions: 10 μM, RT 1 hour, IL-8 1 μg·mL^−1, increase about 60% without drug
[2] = test system: human neutrophils; conditions: 30 mins GM-CSF and fMLP; pretreatment; cited from earlier work
[3] = test system: β2 integrins on human neutrophils; assay: flow cytometry of β2 integrin activation and exocytosis (mAb24, KIM127, TS1/18) after IL-8; format: cell-based; conditions: for inhibition at 10 µM: Homo sapiens, Neutrophil
Description: To monitor the dynamics of β2 integrin activation, 400 μL of 2.5×10^5 cells·mL^−1 neutrophils were assessed by an LSRII analyzer (BD Biosciences, San Jose, CA) for 10 s. After adding 0.5 μg·mL^−1 AF488-conjugated mAb24 and DL550-conjugated KIM127 (final concentration), cells were put back into the analyzer for another 5 minutes. Then, after adding 1 μg·mL^−1 IL-8, cells were put back into the analyzer for another 10 minutes. The curves showing the dynamics of integrin activation (FIGS. 2A, 2B) were generated by FlowJo software (version 10.6). The antibody specificities were validated in our previous study using β2 integrin knockout cells and β2-integrin-activation-deficient talin-1 knockout cells. Compensations were performed before all experiments.
To quantify the percentage of mAb24 and KIM127 epitopes and assess inhibition of β2 integrin exocytosis, pan-CD18 […] TS1/18, which has the same isotype (mouse IgG1) as mAb24 and KIM127, was used. […] Neutrophils were mixed with unconjugated mAb24 (1 μg·mL^−1), KIM127 (1 μg·mL^−1), […] (1 μg·mL^−1), or mouse IgG1 isotype control (1 μg·mL^−1), and incubated with 1 μg·mL^−1 IL-8 at RT for 10 min. After incubation, neutrophils were fixed by 1% PFA at 4° C. for 10 min. After two washes with PBS, cells were incubated with APC-conjugated rat anti-mouse IgG1 secondary mAb (1 μg·mL^−1) at RT for 10 min. After two washes with PBS, cell fluorescence was assessed with an LSRII (BD Biosciences, San Jose, CA) and analyzed with FlowJo software (version 10.6). The quantifications of mAb24, KIM127, TS1/18, and isotype mean fluorescence intensities (MFI) (FIGS. 2C-2E) were analyzed by FlowJo software (version 10.6) and obtained from six replicates. MFI of isotype controls was subtracted as background signal. Since mAb24, KIM127, and TS1/18 are all IgG1 isotypes and we used the same secondary antibody, the percentage of high-affinity and extended β2 integrins (FIGS. 2F and 2G) can be calculated by dividing the MFI of mAb24 and KIM127 by the MFI of TS1/18.

[4] = test system: mouse myocardial I/R injury; assay: infarct size (TTC-phthalo-blue staining) and left ventricle echocardiogram in mouse myocardial I/R injury; format: in vivo
Description: Mice were subjected to 35 minutes of myocardial ischemia and 1 (for multi-photon microscopy and flow cytometry) or 22-26 (for TTC-phthalo-blue staining) hours of reperfusion. […] Briefly, anesthesia was induced with an intraperitoneal injection of ketamine hydrochloride (125 mg·kg^−1) and xylazine (12.5 mg·kg^−1). Mice were intubated with 24G×3/4″ Surflo i.v. catheter and ventilated using MiniVent 845 (Harvard Apparatus).
Surgeries were performed under an SMZ168 Stereo Zoom microscope (Motic). Ischemia was achieved by ligating the left anterior descending coronary artery (LAD) using a 6-0 silk suture with a section of PE-10 tubing placed over the LAD, 1 mm from the tip of the normally positioned left atrium. One important problem in drug administration is water solubility, which greatly affects drug absorption and bioavailability. […] In clinics, the primary percutaneous coronary intervention aims to be performed less than 90 min (within 60 min is preferable) after the patient arrives. […] After occlusion for 35 minutes, reperfusion was initiated by releasing the ligature and removing the PE-10 tubing. The chest wall was closed, the animal extubated, and body temperature was maintained by use of a 37° C. warm pad. Hearts were harvested 1 or 22-26 hours later. The loosened suture was left in place and then retied for the purpose of evaluating the ischemic area. […]
To assess the ischemic area at risk after 22-26 hours of reperfusion, hearts were excised, infused with PBS and freshly prepared 10% phthalo-blue (PBS with 0.75% tween 20) through the aorta and coronary arteries in a retrograde fashion, frozen at −20° C. for 10 minutes, and sliced into five to six 1 mm cross-sections with the aid of a pre-freeze acrylic matrix (ZIVIC Labs). […] The infarct area (white), the area at risk (red and white), and the total left ventricle area from each section were measured using ZEN v3.1 (Zeiss). Ratios of infarct area/area at risk (FIG. 5B) and of area at risk/left ventricle (FIG. 5C) were calculated and expressed as percentages.
To quantify left ventricle function, we performed echocardiograms on mice before and seven days after myocardial I/R injury. […] Echocardiography loops were recorded in B and two-dimensional-targeted M modes in longitudinal and short-axis views on a Vevo 3100 High-Resolution Imaging System equipped with an MX550D transducer (VisualSonics, Toronto, ON, Canada). Mice were fixed on a heated table and heart rate was monitored during the procedure. […] Left ventricular ejection fraction was determined by left ventricle tracing relating the end-systolic left ventricle area as the minimal left ventricle cross-sectional area to the end-diastolic left ventricle area as the maximum left ventricle cross-sectional area in long-axis views. […]

[5] = test system: human neutrophils; conditions: 1 and 4 hours of incubation; previous study; cited from earlier work
[6] = test system: LPS-induced systemic inflammation / acute lung injury; conditions: reported, cited from earlier work
[7] = test system: human neutrophils; assay: neutrophil viability by flow cytometry (Ghost Dye Blue 516); format: cell-based; conditions: 100 μM Nexinhib20, one hour at room temperature
Description: After washes, neutrophils were incubated with Ghost Dye Blue 516 at RT for 15 minutes. After washes, cell fluorescence was assessed with an LSRII (BD Biosciences, San Jose, CA) and analyzed with FlowJo software (version 10.6).

In the case of `CC(C)(C)C(=O)/C(=C\c1cccc([N+](=O)[O-])c1)n1cncn1` [Nexinhib20, 4,4-dimethyl-1-(3-nitrophenyl)-2-(1H-1,2,4-triazol-1-yl)-1-penten-3-one], the “IL-8-induced increase of Rac-1-GTP” value [1] is listed as “eliminated these increases”, the CD11b upregulation [2] is listed as “diminished” and the “β2 integrin exocytosis (total CD18 surface expression, TS1/18)” value ([3]; 10 μM, RT 1 hour, 10 min 1 μg·mL^−1 IL-8) is listed as “inhibited significantly”. The “percentage of high-affinity β2 integrins (mAb24 MFI/TS1/18 MFI)” value ([3]; 10 μM, 10 min after IL-8) was “reduced the percentage of high-affinity”, the inhibition at 10 µM ([3]; RT 1 hour, 10 min 1 μg·mL^−1 IL-8, read-out: inhibition of IL-8-induced elevation of KIM127 (extended β2 integrins)) was ~20% and the inhibition at 10 µM ([3]; RT 1 hour, 10 min 1 μg·mL^−1 IL-8, read-out: inhibition of IL-8-induced elevation of mAb24 (high-affinity β2 integrins)) was ~75%. For the same compound, the “infarct area percentage (infarct area/area at risk)” value ([4]; I/R 35 min/24 hours, i.p. 30 minutes before reperfusion, vehicle about 50%) was “about 40%”, the “change of ejection fraction after myocardial I/R injury” value ([4]; echocardiogram before and 7 days after I/R, vehicle reduced by about 25%) was “no significant reduction” and the “change of fractional shortening after myocardial I/R injury” value ([4]; echocardiogram before and 7 days after I/R, vehicle reduced by about 30%) was “no significant reduction”. The “reduction of infarct size” value ([4]; mouse myocardial I/R injury) was “about 20%”, the “cell death compared to DMSO vehicle controls” value [5] was “did not induce a significant increase in cell death” and the “recruitment of neutrophils to the liver and kidney” value ([6]; LPS-induced systemic inflammation model) was “inhibit recruitment of neutrophils”. The “recruitment of neutrophils to lung lumen and parenchyma” value ([6]; acute LPS-induced lung injury mouse model) was “inhibit recruitment of neutrophils” and the neutrophil viability [7] was ~100%.
